Where two headings read alike, the source gives them in different places.
Tests used:
[1] = system: SOD1(A4V) ALS motor neurons; type: cell-based, human
SOD1(A4V) motor neurons [2] = experiment: Multiple electrode array; type: cell-based, human; settings: for SOD1(A4V) motor neuron excitability: DRD2/3 agonists, MEA (Figure 4C)
[3] = system: differentiated human ALS motor neurons; experiment: Fura-2 calcium response imaging; type: cell-based; settings: fura-2 imaging
patients with ALS = settings: small-scale clinical trial; ref Nagata et al., 2016; cited from earlier work
[4] = system: human motor neurons carrying SOD1, C9ORF72, and FUS mutations; settings: ref Wainger et al., 2014; cited from earlier work
[5] = system: lower motor neuron hyperexcitability; settings: two clinical trials; ref Kovalchuk et al., 2018; Wainger et al., 2021; cited from earlier work
DRD3 = settings: cited from earlier work
SOD1(A4V) motor neurons [6] = experiment: Patch clamp current-clamp recording of spontaneous firing; type: cell-based, human
DRD2 = settings: ref McCall et al., 2005; cited from earlier work
[7] = calcium wave count normalized to the DMSO control (100.00)
[8] = activity normalized to the DMSO control (100.00)

Structure (SMILES) | GCaMP6 (%) spontaneous motor neuron activity [1, 7] [%] | MEA (%) spontaneous motor neuron activity (SOD1(A4V) motor neurons [2]) [%] | other results
CCn1c(=O)[nH]c2ccccc21 [1-Ebio (SB-423901)] | 103.33 ± 21.7 | 122.81 ± 27.8 | –
Cc1o[nH]c(=O)c1C[C@H](N)C(=O)O [AMPA] | – | – | calcium influx [3]: elicits a large calcium influx
Cc1cc(NC2CCCCC2)nc(-n2nc(C)cc2C)n1 [CyPPA (NS6277)] | 80.00 ± 27.4 | 12.72 ± 5.8 | –
O=C(Nc1cnc(Cl)nc1)c1ccc(F)c(F)c1 [ICA 069673] | 13.33 ± 13.9 | 0.07 ± 0.0 | –
O=C(Nc1ccc(Cl)nc1)c1ccc(F)c(F)c1 [ICA-27243] | 0.00 ± 0.0 | – | MEA (%) spontaneous motor neuron activity (SOD1(A4V) motor neurons [2]; [8]): 0.20 ± 0.1%
CN(C)C(=O)C(CCN1CCC(O)(c2ccc(Cl)cc2)CC1)(c1ccccc1)c1ccccc1 [Loperamide] | – | 0.02 ± 0.0 | GCaMP6 (%) spontaneous motor neuron activity [1]: 0.00± 0.0%
Cc1cc(C)c(NC(=O)C2CC3CCC2C3)c(C)c1 (stereo not shown) [ML213] | 0.00 ± 0.0 | 0.38 ± 0.4 | –
COc1ccc(Cl)cc1[C@]1(F)C(=O)Nc2cc(C(F)(F)F)ccc21 [Maxipost (BMS-204352)] | 36.67 ± 39.8 | 22.32 ± 1.1 | –
COCC(=O)O[C@]1(CCN(C)CCCc2nc3ccccc3[nH]2)CCc2cc(F)ccc2[C@@H]1C(C)C [Mibefradil] | 0.00 ± 0.0 | 0.02± 0.0 | –
O=C1Nc2c(ccc(Cl)c2Cl)C1=NO [NS309] | 110.00 ± 38.4 | 86.56 ± 14.4 | –
O=C1NC(=O)C(c2ccccc2)(c2ccccc2)N1 [Phenytoin] | 116.67 ± 56.5 | – | MEA (%) spontaneous motor neuron activity (SOD1(A4V) motor neurons [2]; [8]): 103.78 ± 41.1%
Nc1nc2c(ccc3ccccc32)s1 [SKA 31] | 123.33 ± 60.8 | 106.67 ± 44.4 | –
CC(C)C[C@H]1C(=O)N2CCC[C@H]2[C@]2(O)O[C@](NC(=O)[C@@H]3C=C4c5cccc6[nH]c(Br)c(c56)C[C@H]4N(C)C3)(C(C)C)C(=O)N12 [bromocriptine] | – | – | SOD1(A4V) motor neuron excitability (SOD1(A4V) motor neurons [2]): decreased SOD1(A4V) motor neuron excitability; motor function in patients with ALS (patients with ALS): sustained motor function
CCOC(=O)Nc1ccc(NCc2ccc(F)cc2)nc1N [flupirtine] | – | – | firing of human motor neurons [4]: block firing
CCOC(=O)Nc1ccc(NCc2ccc(F)cc2)cc1N [retigabine] | – | – | lower motor neuron hyperexcitability in patients with ALS [5]: decreased lower motor neuron hyperexcitability; firing of human motor neurons [4]: block firing
CN[C@@H]1Cc2cccc3[nH]c(=O)n(c23)C1 [sumanirole] | – | – | Ki (DRD3): 1940 nM; membrane potential change (SOD1(A4V) motor neurons [6]; patch clamp, accompanying the decrease in firing): slight hyperpolarization; firing frequency (SOD1(A4V) motor neurons [6]; patch clamp, sumanirole 10 μM perfusion, control neurons): decrease in firing frequency; reduced excitability in DRD2 knockdown motor neurons (SOD1(A4V) motor neurons [6]; shRNA-mediated DRD2 knockdown, sumanirole 10 μM): insensitive; SOD1(A4V) motor neuron excitability (SOD1(A4V) motor neurons [2]): decreased SOD1(A4V) motor neuron excitability; Ki (DRD2): 2 nM

Source: publication PMC8209673 (Cell reports, 2021)
